Test results published in ChEMBL document CHEMBL5291721, “A preclinical secondary pharmacology resource illuminates target-adverse drug reaction associations of marketed drugs” (Nat Commun, 2023).

What was measured:
[1] = biological target: Sodium-dependent noradrenaline transporter (Homo sapiens, UniProt P23975)
Thromboxane A2 receptor [2] = biological target: T1, Thromboxane A2 receptor (Homo sapiens, UniProt P21731); format: functional, cell-based
T1 sequence (P21731 whole entry): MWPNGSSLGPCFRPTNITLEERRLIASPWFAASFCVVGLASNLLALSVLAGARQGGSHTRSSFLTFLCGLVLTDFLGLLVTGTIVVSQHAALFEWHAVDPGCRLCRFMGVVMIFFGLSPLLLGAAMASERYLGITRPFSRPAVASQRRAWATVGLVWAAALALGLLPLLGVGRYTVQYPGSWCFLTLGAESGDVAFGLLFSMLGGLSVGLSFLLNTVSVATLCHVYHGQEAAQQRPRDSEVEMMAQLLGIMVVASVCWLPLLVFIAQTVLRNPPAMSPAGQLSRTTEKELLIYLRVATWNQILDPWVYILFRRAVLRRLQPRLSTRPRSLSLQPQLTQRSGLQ

Prothrombin = Prothrombin (Homo sapiens, UniProt P00734); format: functional
[3] = biological target: T2, Amine oxidase [flavin-containing] A (Homo sapiens, UniProt P21397); format: functional
T2 sequence (P21397 whole entry): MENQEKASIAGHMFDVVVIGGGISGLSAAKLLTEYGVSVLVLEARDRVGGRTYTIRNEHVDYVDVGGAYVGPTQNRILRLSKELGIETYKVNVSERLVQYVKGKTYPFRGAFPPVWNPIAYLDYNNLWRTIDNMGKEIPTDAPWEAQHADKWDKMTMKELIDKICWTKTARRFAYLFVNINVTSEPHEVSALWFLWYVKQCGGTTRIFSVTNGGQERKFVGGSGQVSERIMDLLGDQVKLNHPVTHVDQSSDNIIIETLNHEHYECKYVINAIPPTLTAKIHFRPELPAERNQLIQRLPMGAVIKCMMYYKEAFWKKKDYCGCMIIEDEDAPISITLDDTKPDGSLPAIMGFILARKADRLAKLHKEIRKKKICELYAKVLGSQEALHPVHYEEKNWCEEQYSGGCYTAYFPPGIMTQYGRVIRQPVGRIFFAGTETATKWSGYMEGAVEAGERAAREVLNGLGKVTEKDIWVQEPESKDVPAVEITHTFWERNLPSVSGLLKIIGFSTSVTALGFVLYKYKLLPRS

[4] = biological target: Voltage-gated inwardly rectifying potassium channel KCNH2 (Homo sapiens, UniProt Q12809); format: functional
[5] = biological target: T3, Muscarinic acetylcholine receptor M2 (Homo sapiens, UniProt P08172)
T3 sequence (P08172 whole entry): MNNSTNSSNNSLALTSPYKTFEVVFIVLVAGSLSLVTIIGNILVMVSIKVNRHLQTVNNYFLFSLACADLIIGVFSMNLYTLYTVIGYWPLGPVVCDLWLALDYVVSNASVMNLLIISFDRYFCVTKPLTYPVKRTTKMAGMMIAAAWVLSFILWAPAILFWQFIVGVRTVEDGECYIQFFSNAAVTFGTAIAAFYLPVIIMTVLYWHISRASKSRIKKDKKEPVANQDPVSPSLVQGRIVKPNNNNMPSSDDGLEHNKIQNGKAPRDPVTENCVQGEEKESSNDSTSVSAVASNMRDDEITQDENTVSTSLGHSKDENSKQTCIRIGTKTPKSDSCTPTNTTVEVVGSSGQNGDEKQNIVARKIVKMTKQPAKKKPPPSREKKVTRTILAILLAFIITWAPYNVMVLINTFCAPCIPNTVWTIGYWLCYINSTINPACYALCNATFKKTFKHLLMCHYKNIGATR

D(3) dopamine receptor = D(3) dopamine receptor (Homo sapiens, UniProt P35462)
[6] = biological target: 5-hydroxytryptamine receptor 2B (Homo sapiens, UniProt P41595); format: functional, cell-based
[7] = biological target: T4, 5-hydroxytryptamine receptor 1A (Homo sapiens, UniProt P08908)
T4 sequence (P08908 whole entry): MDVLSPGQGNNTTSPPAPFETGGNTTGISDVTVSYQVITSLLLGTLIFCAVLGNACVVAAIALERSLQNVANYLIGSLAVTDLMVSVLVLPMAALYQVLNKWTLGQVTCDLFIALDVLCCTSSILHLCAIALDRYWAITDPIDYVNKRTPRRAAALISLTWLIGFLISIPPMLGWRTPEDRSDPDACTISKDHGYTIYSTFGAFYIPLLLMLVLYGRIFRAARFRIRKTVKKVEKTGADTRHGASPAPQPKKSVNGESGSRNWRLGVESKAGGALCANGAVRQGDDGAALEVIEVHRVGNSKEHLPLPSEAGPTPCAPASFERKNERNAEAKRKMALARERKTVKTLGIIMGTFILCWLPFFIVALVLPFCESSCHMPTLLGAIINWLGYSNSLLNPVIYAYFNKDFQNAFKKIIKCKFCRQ

Thromboxane A2 receptor [8] = biological target: T1, Thromboxane A2 receptor; format: functional, cell-based; remark: listed apart in the source
Mu-type opioid receptor = Mu-type opioid receptor (Homo sapiens, UniProt P35372)
[9] = biological target: T5, Prostaglandin G/H synthase 1 (Homo sapiens, UniProt P23219); format: functional
D(1A) dopamine receptor = D(1A) dopamine receptor (Homo sapiens, UniProt P21728)
Histamine H3 receptor = Histamine H3 receptor (Homo sapiens, UniProt Q9Y5N1)
[10] = biological target: Sodium-dependent dopamine transporter (Homo sapiens, UniProt Q01959)
[11] = biological target: T5, Prostaglandin G/H synthase 1; format: functional; remark: listed apart in the source
[12] = biological target: cGMP-inhibited 3',5'-cyclic phosphodiesterase 3A (Homo sapiens, UniProt Q14432); format: functional
Bile salt export pump = Bile salt export pump (Homo sapiens, UniProt O95342); format: functional
Acetylcholinesterase = Acetylcholinesterase (Homo sapiens, UniProt P22303); format: functional
Further: assay procedure not described here.

Sequence of Sodium-dependent dopamine transporter (Q01959 whole entry): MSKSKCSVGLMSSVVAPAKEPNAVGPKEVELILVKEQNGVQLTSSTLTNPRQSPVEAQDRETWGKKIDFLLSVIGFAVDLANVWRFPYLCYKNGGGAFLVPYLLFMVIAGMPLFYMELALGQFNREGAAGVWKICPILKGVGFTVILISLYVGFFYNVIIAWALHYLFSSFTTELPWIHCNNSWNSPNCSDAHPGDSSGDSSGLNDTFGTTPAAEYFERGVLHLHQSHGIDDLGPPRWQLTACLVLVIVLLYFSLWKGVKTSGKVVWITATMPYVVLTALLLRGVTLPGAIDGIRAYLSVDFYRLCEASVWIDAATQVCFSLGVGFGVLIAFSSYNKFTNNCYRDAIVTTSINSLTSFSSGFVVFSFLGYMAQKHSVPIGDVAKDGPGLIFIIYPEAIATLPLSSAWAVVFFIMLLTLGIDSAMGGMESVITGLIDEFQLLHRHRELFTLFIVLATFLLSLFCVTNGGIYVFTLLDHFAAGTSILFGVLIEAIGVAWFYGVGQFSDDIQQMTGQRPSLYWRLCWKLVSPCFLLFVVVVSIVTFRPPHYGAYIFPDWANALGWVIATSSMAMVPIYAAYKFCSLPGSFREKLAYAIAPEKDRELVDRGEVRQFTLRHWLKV
Sequence of Bile salt export pump (O95342 whole entry): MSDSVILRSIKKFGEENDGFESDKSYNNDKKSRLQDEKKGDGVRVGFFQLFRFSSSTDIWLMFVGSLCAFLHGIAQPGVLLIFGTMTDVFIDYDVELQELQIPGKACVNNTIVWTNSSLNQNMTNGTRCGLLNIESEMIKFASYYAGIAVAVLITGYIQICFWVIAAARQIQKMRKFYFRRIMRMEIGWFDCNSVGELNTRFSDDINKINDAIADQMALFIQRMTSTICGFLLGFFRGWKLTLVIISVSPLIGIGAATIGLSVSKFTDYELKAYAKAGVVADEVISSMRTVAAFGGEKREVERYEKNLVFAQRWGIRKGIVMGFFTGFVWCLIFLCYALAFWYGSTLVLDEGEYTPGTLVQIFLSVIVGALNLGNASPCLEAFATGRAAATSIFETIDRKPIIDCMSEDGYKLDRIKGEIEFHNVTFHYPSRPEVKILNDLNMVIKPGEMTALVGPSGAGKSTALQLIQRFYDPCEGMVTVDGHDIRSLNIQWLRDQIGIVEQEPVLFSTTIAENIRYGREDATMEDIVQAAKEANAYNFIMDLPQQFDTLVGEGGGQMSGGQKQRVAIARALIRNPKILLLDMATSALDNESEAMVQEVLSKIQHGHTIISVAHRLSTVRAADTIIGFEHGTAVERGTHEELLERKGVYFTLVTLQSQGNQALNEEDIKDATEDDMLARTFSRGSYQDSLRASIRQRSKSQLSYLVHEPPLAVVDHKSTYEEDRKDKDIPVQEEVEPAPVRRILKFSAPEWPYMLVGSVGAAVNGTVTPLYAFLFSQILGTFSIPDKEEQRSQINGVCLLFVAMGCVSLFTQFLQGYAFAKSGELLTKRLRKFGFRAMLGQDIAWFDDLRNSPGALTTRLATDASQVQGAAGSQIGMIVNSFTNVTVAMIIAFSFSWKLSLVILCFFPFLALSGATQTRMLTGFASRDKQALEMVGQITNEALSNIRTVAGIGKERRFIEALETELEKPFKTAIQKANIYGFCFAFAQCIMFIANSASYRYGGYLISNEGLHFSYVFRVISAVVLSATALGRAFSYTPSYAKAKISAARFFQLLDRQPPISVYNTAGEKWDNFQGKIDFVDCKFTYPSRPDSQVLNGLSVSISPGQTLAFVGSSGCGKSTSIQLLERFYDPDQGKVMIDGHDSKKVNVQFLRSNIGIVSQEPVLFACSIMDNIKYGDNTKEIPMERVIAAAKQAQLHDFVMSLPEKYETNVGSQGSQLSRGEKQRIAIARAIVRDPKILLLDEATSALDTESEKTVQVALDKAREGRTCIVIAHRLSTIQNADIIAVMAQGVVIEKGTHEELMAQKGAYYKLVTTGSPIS
Sequence of Voltage-gated inwardly rectifying potassium channel KCNH2 (Q12809 whole entry): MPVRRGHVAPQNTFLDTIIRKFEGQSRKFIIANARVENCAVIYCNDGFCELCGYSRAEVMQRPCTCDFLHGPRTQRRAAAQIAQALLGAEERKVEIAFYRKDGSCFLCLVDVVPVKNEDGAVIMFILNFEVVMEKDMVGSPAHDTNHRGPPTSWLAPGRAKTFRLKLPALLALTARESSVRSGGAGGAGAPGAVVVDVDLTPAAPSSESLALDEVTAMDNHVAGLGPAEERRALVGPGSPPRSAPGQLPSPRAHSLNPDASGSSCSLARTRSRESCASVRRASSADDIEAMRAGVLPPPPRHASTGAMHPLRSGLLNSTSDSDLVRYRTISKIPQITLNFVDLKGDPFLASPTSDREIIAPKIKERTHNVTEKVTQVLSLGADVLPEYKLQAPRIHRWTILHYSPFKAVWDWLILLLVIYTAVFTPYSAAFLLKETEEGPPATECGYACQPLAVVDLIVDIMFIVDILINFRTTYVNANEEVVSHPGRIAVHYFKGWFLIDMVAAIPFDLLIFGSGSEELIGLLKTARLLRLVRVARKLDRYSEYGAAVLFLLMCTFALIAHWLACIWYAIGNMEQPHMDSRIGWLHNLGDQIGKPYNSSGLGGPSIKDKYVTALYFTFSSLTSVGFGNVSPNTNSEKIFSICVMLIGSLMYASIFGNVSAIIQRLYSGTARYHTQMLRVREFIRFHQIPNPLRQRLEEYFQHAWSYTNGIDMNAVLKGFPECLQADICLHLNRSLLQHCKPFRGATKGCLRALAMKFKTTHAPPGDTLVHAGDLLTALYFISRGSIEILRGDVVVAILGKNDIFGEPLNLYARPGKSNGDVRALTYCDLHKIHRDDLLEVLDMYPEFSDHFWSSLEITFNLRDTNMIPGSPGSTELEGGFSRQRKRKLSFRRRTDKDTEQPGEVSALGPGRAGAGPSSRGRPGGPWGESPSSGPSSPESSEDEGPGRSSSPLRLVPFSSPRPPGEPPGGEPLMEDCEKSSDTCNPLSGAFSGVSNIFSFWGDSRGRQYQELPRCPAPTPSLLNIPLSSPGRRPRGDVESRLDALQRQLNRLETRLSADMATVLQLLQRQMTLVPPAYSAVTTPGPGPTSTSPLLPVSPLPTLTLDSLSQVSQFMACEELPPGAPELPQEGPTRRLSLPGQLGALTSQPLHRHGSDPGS
Sequence of Sodium-dependent noradrenaline transporter (P23975 whole entry): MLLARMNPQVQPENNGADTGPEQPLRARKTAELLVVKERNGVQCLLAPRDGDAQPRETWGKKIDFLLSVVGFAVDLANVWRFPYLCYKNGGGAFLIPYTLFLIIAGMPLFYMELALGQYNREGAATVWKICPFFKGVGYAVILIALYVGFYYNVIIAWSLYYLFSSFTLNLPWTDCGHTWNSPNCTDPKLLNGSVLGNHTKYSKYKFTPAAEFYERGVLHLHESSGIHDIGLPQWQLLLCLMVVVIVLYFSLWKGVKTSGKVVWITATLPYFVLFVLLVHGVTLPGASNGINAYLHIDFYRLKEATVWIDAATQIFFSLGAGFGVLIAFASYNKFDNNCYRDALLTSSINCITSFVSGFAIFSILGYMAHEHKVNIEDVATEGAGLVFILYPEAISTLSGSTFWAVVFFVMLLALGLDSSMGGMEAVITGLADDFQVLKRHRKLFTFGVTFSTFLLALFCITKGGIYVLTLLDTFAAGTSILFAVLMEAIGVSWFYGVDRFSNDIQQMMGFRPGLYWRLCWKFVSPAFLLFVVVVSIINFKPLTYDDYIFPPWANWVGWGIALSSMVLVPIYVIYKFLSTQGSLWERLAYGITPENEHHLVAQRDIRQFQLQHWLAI
Sequence of Histamine H3 receptor (Q9Y5N1 whole entry): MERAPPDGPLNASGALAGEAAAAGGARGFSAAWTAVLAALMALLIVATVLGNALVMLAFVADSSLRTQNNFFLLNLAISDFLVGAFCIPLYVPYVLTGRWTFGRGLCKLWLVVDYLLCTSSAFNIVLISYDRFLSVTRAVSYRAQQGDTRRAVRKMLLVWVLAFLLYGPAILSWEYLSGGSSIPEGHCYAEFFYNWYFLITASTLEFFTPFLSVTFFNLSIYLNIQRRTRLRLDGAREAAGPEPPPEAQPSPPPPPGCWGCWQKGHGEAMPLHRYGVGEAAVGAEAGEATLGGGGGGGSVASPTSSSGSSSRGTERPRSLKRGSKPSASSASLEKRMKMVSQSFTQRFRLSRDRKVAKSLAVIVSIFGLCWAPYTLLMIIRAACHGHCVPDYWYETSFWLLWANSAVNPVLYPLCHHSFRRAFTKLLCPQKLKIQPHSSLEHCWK
Sequence of Mu-type opioid receptor (P35372 whole entry): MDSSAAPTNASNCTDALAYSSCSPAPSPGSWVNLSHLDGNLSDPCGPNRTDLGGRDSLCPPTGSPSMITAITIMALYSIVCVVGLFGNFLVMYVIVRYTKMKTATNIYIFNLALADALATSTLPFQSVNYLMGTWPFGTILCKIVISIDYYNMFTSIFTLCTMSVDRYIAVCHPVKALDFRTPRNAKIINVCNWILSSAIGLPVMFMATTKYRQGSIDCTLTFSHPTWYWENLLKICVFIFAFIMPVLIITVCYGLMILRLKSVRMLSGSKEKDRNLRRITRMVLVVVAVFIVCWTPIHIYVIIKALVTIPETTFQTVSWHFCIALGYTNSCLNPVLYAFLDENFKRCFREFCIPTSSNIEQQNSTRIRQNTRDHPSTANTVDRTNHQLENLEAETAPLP
Sequence of 5-hydroxytryptamine receptor 2B (P41595 whole entry): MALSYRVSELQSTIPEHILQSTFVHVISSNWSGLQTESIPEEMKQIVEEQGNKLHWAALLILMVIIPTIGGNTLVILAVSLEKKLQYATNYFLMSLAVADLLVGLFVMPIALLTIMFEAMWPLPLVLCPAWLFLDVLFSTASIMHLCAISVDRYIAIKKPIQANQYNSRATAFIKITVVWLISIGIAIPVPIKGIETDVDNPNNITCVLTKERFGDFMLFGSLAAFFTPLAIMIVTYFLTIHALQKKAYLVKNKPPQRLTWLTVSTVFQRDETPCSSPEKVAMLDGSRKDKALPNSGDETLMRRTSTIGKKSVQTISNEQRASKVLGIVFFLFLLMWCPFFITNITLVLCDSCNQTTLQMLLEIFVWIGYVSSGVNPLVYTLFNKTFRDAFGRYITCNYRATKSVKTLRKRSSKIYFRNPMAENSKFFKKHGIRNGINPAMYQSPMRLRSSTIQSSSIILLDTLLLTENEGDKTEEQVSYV

Structure (SMILES)	AC50 [1]	AC50 (Thromboxane A2 receptor [2])	AC50 (Prothrombin)	AC50 [3]	AC50 [4]	AC50 [5]	AC50 (D(3) dopamine receptor)	AC50 [6]	AC50 [7]	AC50 (Thromboxane A2 receptor [8])	AC50 (Mu-type opioid receptor)	AC50 [9]	AC50 (D(1A) dopamine receptor)	AC50 (Histamine H3 receptor)	AC50 [10]	AC50 [11]	AC50 [12]	AC50 (Bile salt export pump)	AC50 (Acetylcholinesterase)
O=C(O)COc1ccc(C(=O)c2cccs2)c(Cl)c1Cl	> 30 µM	> 30 µM	> 30 µM	> 30 µM	> 30 µM	> 30 µM	> 30 µM	> 30 µM	> 30 µM	> 30 µM	> 30 µM	> 30 µM	> 30 µM	> 30 µM	> 30 µM	> 30 µM	> 30 µM	> 300 µM	> 30 µM
OC[C@H]1O[C@@H](c2ccc(Cl)c(Cc3ccc(O[C@H]4CCOC4)cc3)c2)[C@H](O)[C@@H](O)[C@@H]1O [EMPAGLIFLOZIN]	> 30 µM	> 30 µM	> 30 µM	> 30 µM	> 30 µM	> 30 µM	> 30 µM	> 30 µM	> 30 µM	> 30 µM	> 30 µM	> 30 µM	> 30 µM	> 30 µM	> 30 µM	> 30 µM	> 30 µM	> 300 µM	> 30 µM
CCOC(=O)C1=C[C@@H](OC(CC)CC)[C@H](NC(C)=O)[C@@H](N)C1 [OSELTAMIVIR]	> 30 µM	> 30 µM	> 30 µM	> 30 µM	> 30 µM	> 30 µM	> 30 µM	> 30 µM	> 30 µM	> 30 µM	> 30 µM	> 30 µM	> 30 µM	> 30 µM	> 30 µM	> 30 µM	> 30 µM	> 300 µM	> 30 µM
Cc1onc(-c2ccccc2)c1C(=O)N[C@@H]1C(=O)N2[C@@H]1SC(C)(C)[C@@H]2C(=O)O [OXACILLIN]	> 30 µM	> 30 µM	> 30 µM	> 30 µM	> 30 µM	> 30 µM	> 30 µM	> 30 µM	> 30 µM	> 30 µM	> 30 µM	> 30 µM	> 30 µM	> 30 µM	> 30 µM	> 30 µM	> 30 µM	220 µM	> 30 µM
CCCN(CCC)C(=O)Cc1c(-c2ccc(Cl)cc2)nc2ccc(Cl)cn12 [ALPIDEM]	> 30 µM	> 30 µM	> 30 µM	> 30 µM	14.8 µM	> 30 µM	27.8 µM	> 30 µM	> 30 µM	> 10 µM	15.5 µM	> 30 µM	> 30 µM	> 30 µM	> 30 µM	> 30 µM	> 30 µM	4.8 µM	> 30 µM
COc1cc2nc(N3CCN(C(=O)C4CCCO4)CC3)nc(N)c2cc1OC (stereo unspecified) [TERAZOSIN]	> 30 µM	> 30 µM	> 10 µM	> 30 µM	–	> 30 µM	> 30 µM	> 30 µM	> 30 µM	> 30 µM	> 30 µM	> 30 µM	27.8 µM	> 30 µM	> 30 µM	> 30 µM	> 30 µM	> 300 µM	22.9 µM
CCCC(CCC)C(=O)O [VALPROIC ACID]	> 30 µM	> 30 µM	> 30 µM	> 30 µM	–	> 30 µM	> 30 µM	> 30 µM	> 30 µM	> 30 µM	> 30 µM	> 30 µM	> 30 µM	> 30 µM	> 30 µM	> 30 µM	> 30 µM	> 300 µM	> 30 µM
